Laboratory results reported in US20200341000A1, “METHOD OF SCREENING COMPOUNDS FOR TREATING CNS DISORDERS” (SAGE THERAPEUTICS, INC., priority 2017, published 2020).
Marks after values point to notes of the source that are not given here.

Columns and labels:
[1] = test system: sIPSCs in dentate gyms granule cells (DGGCs); assay: Acute (allosteric) modulation of sIPSCs in DGGCs of hippocampal slices; type: cell-based, mice; details: for mean sIPSC amplitude before versus during exposure / mean sIPSC decay time in the presence of compound: 100 nM; for sIPSC Amplitude / sIPSC Decay / sIPSC Frequency: 100 nM acute exposure, n = 5 to 7 neurons
Procedure: Brain slices were prepared from 3- to 5-week-old male C57 mice. Mice were anesthetized with isoflurane, decapitated, and brains were rapidly removed and submerged in ice-cold cutting solution containing (mM): 126 NaCl, 2.5 KCl, 0.5 CaCl2, 2 MgCl2, 26 NaHCO3, 1.25 NaH2PO4, 10 glucose, 1.5 sodium pyruvate, and 3 kynurenic acid. Coronal 310 μm thick slices were cut with the vibratome VT1000S (Leica Microsystems, St Louis, Mo., USA). The slices were then transferred into incubation chamber filled with prewarmed (31-32° C.) oxygenated artificial cerebro-spinal fluid (ACSF) of the following composition (in mM): 126 NaCl, 2.5 KCl, 2 CaCl2, 2 MgCl2, 26 NaHCO3, 1.25 NaH2PO4, 10 glucose, 1.5 sodium pyruvate, 1 glutamine, 3 kynurenic acid and 0.005 GABA bubbled with 95% O2-5% CO2. Slices were allowed to recover at 32° C. for at least 1 hr before recording. Exogenous GABA was added in an attempt to standardize ambient GABA in the slice and provide an agonist source for newly inserted extrasynaptic GABAARs.
After recovery, a single slice was transferred to a submerged, dual perfusion recording chamber (Warner Instruments, Hamden, Conn., USA) on the stage of an upright microscope (Nikon FN-1) with a 40× water immersion objective equipped with DIC/IR optics. Slices were maintained at 32° C. and gravity-superfused with ACSF solution throughout experimentation and perfused at rate of 2 ml/min with oxygenated (O2/CO2 95/5%) ACSF.
Whole-cell currents were recorded from the dentate gyms granule cells (DGGCs) in 310-μm-thick coronal hippocampal slices. Patch pipettes (5-7MΩ) were pulled from borosilicate glass (World Precision Instruments) and filled with intracellular solution of the composition (in mM) as follows: 140 CsCl, 1 MgCl2, 0.1 EGTA, 10 HEPES, 2 Mg-ATP, 4 NaCl and 0.3 Na-GTP (pH=7.2 with CsOH). A 5 min period for stabilization after obtaining the whole-cell recording conformation (holding potential of −60 mV) was allowed before currents were recorded using an Axopatch 200B amplifier (Molecular Devices), low-pass filtered at 2 kHz, digitized at 20 kHz (Digidata 1440A; Molecular Devices), and stored for offline analysis.
For tonic current measurements, an all-points histogram was plotted for a 10 s period before and during 100 μM picrotoxin application, once the response reached a plateau level. Recordings with unstable baselines were discarded. Fitting the histogram with a Gaussian distribution gave the mean baseline current amplitude and the difference between the amplitudes before and during picrotoxin was considered to be the tonic current. The negative section of the all-points histogram which corresponds to the inward IPSCs was not fitted with a Gaussian distribution (Kretschmannova et al., 2013; Nusser and Mody, 2002). Series resistance and whole-cell capacitance were continually monitored and compensated throughout the course of the experiment. Recordings were eliminated from data analysis if series resistance increased by >20%. Spontaneous inhibitory post-synaptic currents (sIPSCs) were analyzed using the mini-analysis software (version 5.6.4; Synaptosoft, Decatur, Ga.). Minimum threshold detection was set to 3 times the value of baseline noise signal. To assess sIPSC kinetics, the recording trace was visually inspected and only events with a stable baseline, sharp rising phase, and single peak were used to negate artifacts due to event summation. Only recordings with a minimum of 200 events fitting these criteria were analyzed. sIPSCs amplitude, and frequency from each experimental condition was pooled and expressed as mean±SEM. To measure sIPSC decay, 100 consecutive events were averaged and the decay was fitted to a double exponential and the weighted decay constant (tw) was determined. Statistical analysis was performed by using Student t-test (paired and unpaired where appropriate), where p<0.05 is considered significant.

[2] = test system: plasma membrane GABAARs containing the α4 and β3 subunits; assay: Biotinylation, surface/total GABAAR subunits in hippocampal slices of WT mice; type: cell-based
Procedure: Hippocampi were dissected out of acute slices from 8 to 12 week old C57/B16 mice and lysed with phosphate buffer including: 20 mM Tris-HCl, 150 mM NaCl, 5 mM EDTA, 10 mM NaF, 2 mM Na3VO4, 10 mM pyrophosphate, 0.1% SDS and 1% Triton after drug treatment. The β3 subunit was isolated using immunoprecipitation with β3 antibodies, after correction for protein content and the specific activity of labeling. Results were attained by SDS/PAGE followed by autoradiography (Abramian et al., 2010). For biotinylation experiments hippocampi were dissected out of acute slices from 8 to 12 week old C57/B16 mice and incubated in artificial cerebrospinal fluid (ACSF) described above at 30° C. for 1 h for recovery before experimentation. Slices were then placed on ice and incubated for 30 min with 1 mg/mL NHS-SS-biotin (Pierce). Excess biotin was removed by a 50 mM glycine quenching buffer, followed by washing of slices three times in ice-cold ACSF. The tissue was snap frozen on dry ice for 5 min, thawed at 4° C. and lysed. The lysates were solubilized with 2% Triton at 4° C. on a rotating wheel for 1 h. The insoluble material was removed by centrifugation, and 350-500 μg of protein lysate were incubated with NeutrAvidin beads (Pierce) for 18-24 h at 4° C. Bound material was eluted with sample buffer and subjected to SDS/PAGE and then immunoblotted with the indicated antibodies. Blots were then quantified using the CCD-based ChemiDoc XRS ? system. Antibodies against the β3 subunit and the phospho-β3 antibody were generated and verified by the laboratory of S.J.M. (Vien et al., 2015).
Hippocampal slices were treated as outlined above. Treated slices were then subject to biotinylation and lysis, and surface fractions were isolated on immobilized avidin. Surface (S) and total (T) fractions were immunoblotted with α4 and β3 subunit antibodies.
Consistent with the examples above, hippocampal slices from WT and S408/9A mice were treated for 20 min with 100 nM SGE-516 or vehicle (Con) and subjected to biotinylation followed by immunoblotting with β3 and α4 subunit antibodies. The ratio of surface/total (S/T) immunoreactivity was then normalized to levels seen in control (100%).

Compound | mean sIPSC amplitude before versus during exposure [1] | mean sIPSC decay time in the presence of compound [1] | sIPSC Amplitude [1] [pA] | sIPSC Decay [1] | sIPSC Frequency [1] [Hz] | GABAA-β3-containing receptors at the plasma membrane (surface β3/T-β3) ([2]; 100 nM, 20 min) | plasma membrane levels of GABAARs containing α4 and β3 subunits, S/T normalized to control (100%) ([2]; 100 nM, 20 min, WT mice) | plasma membrane accumulation of the α4 and β3 subunits ([2]; hippocampal slices, biotinylation)
CC(=O)[C@H]1CC[C@H]2[C@@H]3CC[C@H]4C[C@H](O)CC[C@]4(C)[C@H]3CC[C@]12C [ALLO, Allopregnanolone] | no significant difference | significantly increased | 59.1 ± 0.6 | 19.2 ± 1.3^a ms | 3.4 ± 1.0 | increases | – | –
C[C@@]1(O)CC[C@H]2[C@H](CC[C@@H]3[C@@H]2CC[C@]2(C)[C@@H](C(=O)Cn4nccn4)CC[C@@H]32)C1 [SGE-516] | no significant difference | significantly increased | 52.9 ± 0.7 | 15.1 ± 0.8^b ms | 4.6 ± 0.6 | increases | 175-185% | increased
